These results are taken from patent publication US5830910A (priority 1995, dated 1998).

What all share (format): cell-based, rat
Data set [1] concerns cultured hippocampal neurons. Put plainly: cells. Conditions: for viability at 0.1 µM: Rattus norvegicus, Hippocampal neuron. From the text: (§1) Dissociated embryonic rat hippocampal cell cultures were established and maintained. All procedures conformed with the NIH Guide for the Care and Use of Laboratory Animals and were approved by the University of Kentucky Animal Care and Use Committee. Cultures were maintained on a polyethyleneimine-coated substrate in plastic 35-mm dishes or 96 wall plates (for cell survival studies) or glass-bottom 35-mm dishes (for [Ca^2+ ]i imaging studies). The cell density was ^~ 70-100 cells/mm^2. Cells were maintained in Eagle's minimum essential medium supplemented 10% with fetal bovine serum and containing 20 mM sodium pyruvate. […] Aβ25-35 (Bachem, lot ZJ744) and Aβ1-40 (Bachem, lot ZK600) were stored in the lyophilized form, and stocks were prepared immediately before use by dissolving the peptide at a concentration of 1 mM in sterile distilled water. […] Glutamate and colchicine (Sigma) were prepared as 200-500x stocks in saline. Cytochalasins D and E (Sigma) and calcium ionophore 4-bromo-A23187 (Calbiochem) were prepared as 500x stocks in dimethyl sulfoxide. Vitamin E (α-tocopherol; Sigma) was prepared as a 500x stock in ethanol. Nordihydroguaiaretic acid and FeSo4 were prepared as 500x stocks in sterile water.
(§2) Neuronal survival was quantified by counting viable neurons in the same microscope fields (10x objective) immediately before experimental treatment and at time points after treatment. In addition, cells were grown in 96-well plates and Alamar blue fluorescence (Alamar Laboratories)was quantified by using a fluorescence plate reader. Alamar Blue is a non-fluorescent substrate that, after reduction by cell metabolites, becomes fluorescent. Usually neurons that died in the time intervals (20-48 h) between examination points were absent. Viability of the remaining neurons was assessed by morphological criteria. Neutrons with intact neurites of uniform diameter and a soma with a smooth, round appearance were considered viable, whereas neurons with fragmented neurites and a vacuolated or swollen soma were considered nonviable. Survival values were expressed as percentages of the initial number of neurons present before experimental treatment. Statistical comparisons were made using ANOVA and Scheffe post-hoc tests for pairwise comparisons.
Values represent the means and SEM of 4 separate cultures (cell counts) or 4 culture wells (Alamar blue assay). ^a p<0.05 compared to control value. ^b p<0.001 compound to control value. ^c p<0.01 compared to value for glutamate-treated cultures. ^d p<0.005 compared to value for glutamate-treated cultures. ^e p<0.001 compared to value for Aβ-treated cultures. ^f p<0.001 compared to value for cultures treated with 20 μM glutamate. ^g p<0.001 compared to cultures treated with 50 μM Aβ+20 μM glutamate. n.d. not determined.

For data set [2], the system named is cultured hippocampal neurons. Briefly: hydrogen peroxide neurotoxicity.
Description: as §1
as §2, with “Usually neurons that died in the time intervals (20-48 h) between examination points were absent.” left out
FIG. 15. […] Cultures were pretreated for 1 h with vehicle (Control), 100 nM cytochalasin D (CyD), or 50 μg/ml vitamin E (vE) and then exposed for 20 h to the indicated concentrations of hydrogen peroxide. Data are mean and SEM values of determinations made in four separate cultures.

For data set [3], the system named is growth cone motility of hippocampal neurons. Put plainly: growth cone motility.
For data set [4], the system named is actin stress fibers in astrocytes. Put plainly: phalloidin staining of actin stress fibers, astrocytes. Conditions: 10-1000 nM (FIG. 4A: 100 nM), 3 h. On the procedure:
Hippocampal cells were exposed to cytochalasin D and then fixed for 30 min in 4% paraformaldehyde/phosphate-buffered saline. Cell membranes were permeabilized by incubating for 5 min in a solution of 0.2% Triton X-100 in phosphate-buffered saline. Cells were then incubated for 30 min in PBS containing 0.005 U/ml fluorescein-phalloidin (Molecular Probes). Cells were rinsed in water and mounted in Vectashield antifade solution (Vector Laboratories) . Fluorescence images were acquired using a Sarastro 2000 confocal laser scanning microscope with a 60x oil-immersion objective. All images were acquired using identical settings for excitation intensity and detector gain.
FIG. 4. (A) Micrographs are confocal laser scanning microscope images of cultured hippocampal cells stained with fluorescein-labeled phalloidin. Cells were exposed for 3 h to either vehicle (control; left) or 100 nM cytochalasin D (right) prior to staining with phalloidin. The top micrographs show several neurons (arrowheads point to neuronal cell bodies); note reduction in phalloidin fluorescence in cytochalasin-treatedneurons.

Data set [5] has as its system cultured hippocampal neurons. Briefly: cells. The conditions noted are these: pretreated 1 hr; 100 μM glutamate, 24 hr.
The test system of data set [6] is cultured hippocampal neurons. Conditions: 100 nM cotreated; 50 μM Aβ25-35, 24 hr.
The test system of data set [7] is cultured hippocampal neurons. Conditions: 100 nM, added 1 h before 50 μM Aβ; 48 h.
Description: as §1, §2
FIG. 12. (A) Cultures were pretreated for 1 h with vehicle 0.2% dimethyl sulfoxide (Control) or 100 nM cytochalasin D (CyD) and were exposed to the indicated concentrations of Aβ25-35 for 48 h. Data are mean and SEM values of determinations made in four separate cultures.
(B) Cultures were pretreated for 1 h with the indicated concentrations of cytochalasin D and then exposed to 50 μM Aβ25-35; parallel cultures were exposed to cytochalasin D alone (Control) . Data are mean and SEM values of determinations made in four separate cultures.
FIG. 14. Cultures were exposed to 100 nM colchicine; 50 μM Aβ; 100 nM colchicine plus 50 μM Aβ; 100 nM cytochalasin E (CyE) plus Aβ (colchicine and cytochalasin E were added 1 h before Aβ); neuronal survival was assessed 48 h later. Data are mean and SEM values of determinations made in four separate cultures. *p<0.01, compared with values for control or colchicine alone. **p<0.01, compared with value for cultures exposed to Aβ alone.

Where [8] appears, read: 100 μM Glutamate + 10 nM substance.
Setting [9] is: 100 μM Glutamate + 100 nM substance.

Entries after “also recorded” stand apart in the source; their conditions may differ. Where two headings read alike, the source gives them in different places.

On to `C=C1[C@@H](C)[C@H]2[C@H](Cc3ccccc3)NC(=O)[C@]23[C@H](OC(C)=O)/C=C/[C@@](C)(O)C(=O)[C@@H](C)C/C=C/[C@H]3[C@@H]1O` [Cytochalasin D, cytochalasin D], for which the “Neuron Survival (% of control), Alamar Blue Assay” value in data set [1] (10 nM, alone) is recorded as 97 ± 7.8 % of control; in data set [1] (100 nM, alone), 91 ± 5.9 % of control; in data set [1] (50 μM Aβ + 10 nM substance), 55 ± 2.5 % of control; in data set [1] (50 μM Aβ + 100 nM substance), 74 ± 1.3 % of control; in data set [1] (50 μM Aβ + 20 μM Glut with 100 nM substance), 63 ± 2.5 % of control; in data set [1] (setting [8]), 43 ± 6.7 % of control. In data set [1] (setting [9]), the “Neuron Survival (% of control), Alamar Blue Assay” value is on record as 42 ± 4.2 % of control. The “Neuron Survival (% of control), Cell Counts” value in data set [1] (10 nM, alone) is 89 ± 2.4 % of control; in data set [1] (100 nM, alone) it was 87 ± 2.2 % of control; in data set [1] (setting [8]), 54 ± 7.4 % of control; in data set [1] (setting [9]), 45 ± 9.8 % of control. The “effect on neuronal survival, alone” value in data set [1] (1-100 nM, alone) is recorded as “no significant effect on neuronal survival”. In data set [2] (100 nM, 1 h pretreatment, 20 h), the “effect on neuronal killing by hydrogen peroxide” value is reported as “not altered; also recorded: does not protect neurons against hydrogen peroxide toxicity”. For the same molecule, the antioxidant activity result in data set [2] (suggested from hydrogen peroxide test) is listed as “little or no antioxidant activity”. In addition, the growth cone motility entry in data set [3] is reported as “inhibit growth cone motility”. Also, the “actin stress fibers in astrocytes” value in data set [4] is “loss of actin stress fibers in astrocytes; also recorded: loss of stress fibers and cell rounding”. Further, the “effect on glutamate neurotoxicity” value in data set [5] was “significantly attenuated”. For the same molecule, the “effect on Aβ neurotoxicity” value in data set [6] was “essentially eliminated”.

Consider `COc1cc2c(c(OC)c1OC)-c1ccc(OC)c(=O)cc1[C@@H](NC(C)=O)CC2` [Colchicine, colchicine, reference compound], for which the “effect on neuronal survival, alone” value in data set [1] (100 nM, alone) is “reduced survival”. Besides, the viability at 0.1 µM came to 40 ± 5.2% in data set [1] (100 nM, alone, read-out: Neuron Survival (% of control), Alamar Blue Assay); 23 ± 2.8% in data set [1] (50 μM Aβ + 100 nM substance, read-out: Neuron Survival (% of control), Alamar Blue Assay); 12 ± 2.2% in data set [1] (100 μM Glutamate + 100 nM substance, read-out: Neuron Survival (% of control), Alamar Blue Assay); 85 ± 1.9% in data set [1] (read-out: Neuron Survival (% of control), Cell Counts, 100 nM, alone). Further, the entries for the “effect on Aβ neurotoxicity” value in data set [7] and in data set [6] were “did not protect neurons against Aβ toxicity” and “exacerbated Aβ toxicity”, respectively. In data set [5], the “effect on glutamate neurotoxicity” value was “ineffective”.
